In ChEMBL document CHEMBL1201862, “PubChem BioAssay data set” (2004):
Activity calls are given as the source filed them.

Legend:
[1] = target: T1, Protein skinhead-1 (Caenorhabditis elegans, UniProt P34707); assay type: functional
T1 sequence (P34707 whole entry): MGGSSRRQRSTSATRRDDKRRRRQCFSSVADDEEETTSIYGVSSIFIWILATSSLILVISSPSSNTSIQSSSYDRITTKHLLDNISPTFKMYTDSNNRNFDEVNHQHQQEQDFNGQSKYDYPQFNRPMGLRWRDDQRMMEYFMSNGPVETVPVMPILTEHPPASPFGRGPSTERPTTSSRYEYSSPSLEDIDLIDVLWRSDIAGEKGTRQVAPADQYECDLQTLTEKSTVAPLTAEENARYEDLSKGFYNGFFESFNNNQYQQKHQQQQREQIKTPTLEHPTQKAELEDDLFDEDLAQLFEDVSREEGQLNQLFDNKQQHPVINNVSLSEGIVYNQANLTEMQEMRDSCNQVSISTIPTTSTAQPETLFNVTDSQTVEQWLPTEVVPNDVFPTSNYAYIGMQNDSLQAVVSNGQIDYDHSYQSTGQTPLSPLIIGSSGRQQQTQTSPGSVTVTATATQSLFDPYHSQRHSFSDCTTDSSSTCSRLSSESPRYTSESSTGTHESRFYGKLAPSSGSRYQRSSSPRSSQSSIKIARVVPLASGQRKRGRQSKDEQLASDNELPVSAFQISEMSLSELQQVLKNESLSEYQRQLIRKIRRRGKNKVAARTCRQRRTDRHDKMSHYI

[2] = Luminescence Cell-Based Dose Confirmation HTS to Identify Inhibitors of Platelet Dense Granule Release. [Related pubchem assays: 1663 (Primary HTS), 1678 (Summary of Project)]; assay type: functional
[3] = target: Luciferin 4-monooxygenase (Photinus pyralis, UniProt P08659); assay: inhibition of purified Photinus pyralis luciferase – biochemical, luminescence, dose response (AID 1891)
[4] = target: Cytochrome P450 2C9 (Homo sapiens, UniProt P11712)
[5] = cells; assay type: functional
[6] = Trypanosoma cruzi growth suppression in host cells – NIH3T3 host cells, beta-gal luminescence, confirmation (AID 2044); assay type: functional, cell-based;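 further: intracellular parasites grown in NIH/3T3 mouse fibroblasts as host cells; luminescent beta-galactosidase reporter signal from transgenic T. cruzi replicating inside host cells; inhibitors lower the luminescence signal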
[7] = NIH3T3 cell viability loss – ATP luminescence, mouse fibroblasts, counter-screen, dose response (AID 2010); assay type: functional, cell-based;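 further: cells exposed to compound for about 90 hours before reading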
[8] = target: T2, Streptokinase A (Streptococcus pyogenes serotype M1, UniProt P10520); assay: viability-normalized secreted streptokinase activity reduction – plasminogen activation absorbance, OD405, dose response (AID 1914); assay type: functional, Streptococcus pyogenes M1 GAS;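 further: secreted streptokinase activity via plasminogen activation per viability signal from cell pellet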
T2 sequence (P10520 whole entry): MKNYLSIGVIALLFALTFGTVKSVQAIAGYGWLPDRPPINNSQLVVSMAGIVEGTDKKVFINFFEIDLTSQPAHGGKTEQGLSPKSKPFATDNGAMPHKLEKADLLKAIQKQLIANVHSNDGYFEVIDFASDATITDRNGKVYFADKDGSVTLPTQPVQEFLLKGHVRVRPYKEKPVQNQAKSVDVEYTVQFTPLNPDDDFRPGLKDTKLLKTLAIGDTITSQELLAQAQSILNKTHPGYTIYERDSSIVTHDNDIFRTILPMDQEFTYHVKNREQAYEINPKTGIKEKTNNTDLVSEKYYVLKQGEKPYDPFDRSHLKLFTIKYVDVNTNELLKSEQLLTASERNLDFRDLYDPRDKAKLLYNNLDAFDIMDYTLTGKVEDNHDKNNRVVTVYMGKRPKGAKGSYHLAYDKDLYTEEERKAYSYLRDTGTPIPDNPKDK

[9] = test system: Streptococcus sp. 'group A'; assay: Streptococcus pyogenes SK(-)GAS viability under kanamycin – luminescence, BacTiterGlo, confirmation, counter-screen for streptokinase expression inhibitor project, dose response (AID 1900); assay type: functional, organism-based
[10] = non-specific 3'UTR reporter inhibition in Clone20-Shn3RL – cell-based, Renilla luciferase, cherry-picked, counter-screen for Shn3 inhibitor project, dose response (AID 624133); assay type: functional
[11] = loss of viability in HepG2 cells – cell-based, CellTiter-Glo, cherry-picked, cytotoxicity control for Shn3 inhibitor project, dose response (AID 624134); assay type: functional
[12] = test system: Streptococcus; assay: GAS UMAA2166 growth inhibition – luminescence, BacTiterGlo, counter-screen for streptokinase expression inhibitor project, dose response (AID 1915); assay type: functional, organism-based;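 further: potency for reduction of bacterial viability or growth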
[13] = reduction of Shn3 3'UTR-driven luciferase in osteoblasts – cell-based, Clone20 osteoblasts, firefly luciferase, cherry-picked, dose response (AID 624132); assay type: functional;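 further: firefly luciferase luminescence from reporter carrying the Shn3 3'UTR in osteoblasts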
[14] = target: Genome polyprotein (dengue virus type 2, UniProt P29990); assay: flavivirus cap methylation enzyme inhibition – biochemical, confirmation dose response, primary screen (AID 588689); assay type: functional
[15] = target: FAD-linked sulfhydryl oxidase ALR (Homo sapiens, UniProt P55789); assay: ALR-catalysed DTT oxidation blockers – biochemical, H2O2 detection, luminescence, cherry-pick, dose response (AID 493248)
[16] = target: Cytochrome P450 3A4 (Homo sapiens, UniProt P08684);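 further: CYP3A4 tested as one member of a cytochrome P450 panel screen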
[17] = alpha-synuclein stem-loop luciferase translation blockers – H4 neuroglioma cells, luminescence, confirmation (AID 1988); assay type: functional, cell-based
[18] = Luminescence Cell-Based Dose Response HTS to Identify Inhibitors of 5'UTR Stem-Loop Driven Prion Protein mRNA Translation in H4 Neuroglioblastoma Cells. [Related pubchem assays: 1827 (Project Summary), 1813 (Primary HTS)]; assay type: functional
[19] = viability of HCT116 lacking mutant beta-catenin – cell-based, human colon tumor, dose response (AID 1045); assay type: functional;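 further: HCT116 colon tumor cells with beta catenin knocked out; cells exposed to compound for 60 hours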
[20] = viability of uninfected HEp-2 cells – cell-based, HTS, cytotoxicity control for RSV inhibitor project, dose response (AID 2410); assay type: functional; conditions: human respiratory syncytial virus

Chain of Genome polyprotein (P29990 2492-3391 limits assumed): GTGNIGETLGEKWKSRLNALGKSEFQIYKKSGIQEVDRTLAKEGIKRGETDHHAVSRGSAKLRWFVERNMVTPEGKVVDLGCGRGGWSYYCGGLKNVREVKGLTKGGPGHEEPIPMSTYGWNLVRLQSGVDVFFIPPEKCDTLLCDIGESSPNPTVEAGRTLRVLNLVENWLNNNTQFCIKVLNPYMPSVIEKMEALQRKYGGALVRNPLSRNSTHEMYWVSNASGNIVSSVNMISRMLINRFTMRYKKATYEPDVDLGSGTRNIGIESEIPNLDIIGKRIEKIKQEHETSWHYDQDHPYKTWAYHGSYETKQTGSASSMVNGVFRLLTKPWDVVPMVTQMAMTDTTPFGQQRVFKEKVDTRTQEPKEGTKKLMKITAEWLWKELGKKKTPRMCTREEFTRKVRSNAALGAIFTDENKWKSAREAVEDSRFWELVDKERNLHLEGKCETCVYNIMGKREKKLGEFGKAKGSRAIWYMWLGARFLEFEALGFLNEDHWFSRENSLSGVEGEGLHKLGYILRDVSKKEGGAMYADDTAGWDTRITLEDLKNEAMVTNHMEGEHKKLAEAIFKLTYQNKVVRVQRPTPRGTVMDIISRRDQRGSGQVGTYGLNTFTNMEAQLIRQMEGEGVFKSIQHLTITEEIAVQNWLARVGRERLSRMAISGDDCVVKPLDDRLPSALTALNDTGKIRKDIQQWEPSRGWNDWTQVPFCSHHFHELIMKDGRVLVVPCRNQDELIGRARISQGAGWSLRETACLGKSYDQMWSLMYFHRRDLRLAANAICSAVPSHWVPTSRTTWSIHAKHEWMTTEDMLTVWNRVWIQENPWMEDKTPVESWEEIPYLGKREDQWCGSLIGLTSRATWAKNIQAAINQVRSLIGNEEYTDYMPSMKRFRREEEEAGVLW
Chain of Cytochrome P450 3A4 (P08684 whole entry): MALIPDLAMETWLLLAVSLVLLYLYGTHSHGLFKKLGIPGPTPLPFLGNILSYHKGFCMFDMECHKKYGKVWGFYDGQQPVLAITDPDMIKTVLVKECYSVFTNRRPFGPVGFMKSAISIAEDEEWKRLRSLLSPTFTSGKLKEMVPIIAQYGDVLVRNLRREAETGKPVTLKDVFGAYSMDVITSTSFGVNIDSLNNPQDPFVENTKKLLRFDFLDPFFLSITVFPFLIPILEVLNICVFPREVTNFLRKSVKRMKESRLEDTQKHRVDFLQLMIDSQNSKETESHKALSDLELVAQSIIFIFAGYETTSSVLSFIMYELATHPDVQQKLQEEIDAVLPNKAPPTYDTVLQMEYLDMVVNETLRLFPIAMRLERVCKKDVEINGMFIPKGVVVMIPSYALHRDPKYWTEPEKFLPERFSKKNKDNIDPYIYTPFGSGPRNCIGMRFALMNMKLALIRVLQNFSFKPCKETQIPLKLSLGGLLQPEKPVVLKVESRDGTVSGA
Chain of Cytochrome P450 2C9 (P11712 whole entry): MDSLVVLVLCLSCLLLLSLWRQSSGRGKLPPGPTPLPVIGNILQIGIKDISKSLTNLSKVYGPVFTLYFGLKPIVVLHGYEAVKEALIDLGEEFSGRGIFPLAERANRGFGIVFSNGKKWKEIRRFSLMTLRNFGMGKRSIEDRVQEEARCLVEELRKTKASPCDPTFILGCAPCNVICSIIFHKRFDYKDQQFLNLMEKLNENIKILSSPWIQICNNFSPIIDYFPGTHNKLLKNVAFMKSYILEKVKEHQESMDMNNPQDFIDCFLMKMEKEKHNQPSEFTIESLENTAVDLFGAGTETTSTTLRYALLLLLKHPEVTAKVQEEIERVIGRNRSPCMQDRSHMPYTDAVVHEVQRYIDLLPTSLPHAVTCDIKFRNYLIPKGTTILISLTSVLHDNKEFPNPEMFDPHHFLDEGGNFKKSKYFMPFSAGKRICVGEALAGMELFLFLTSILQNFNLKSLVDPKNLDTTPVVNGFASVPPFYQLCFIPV
Chain of Luciferin 4-monooxygenase (P08659 whole entry): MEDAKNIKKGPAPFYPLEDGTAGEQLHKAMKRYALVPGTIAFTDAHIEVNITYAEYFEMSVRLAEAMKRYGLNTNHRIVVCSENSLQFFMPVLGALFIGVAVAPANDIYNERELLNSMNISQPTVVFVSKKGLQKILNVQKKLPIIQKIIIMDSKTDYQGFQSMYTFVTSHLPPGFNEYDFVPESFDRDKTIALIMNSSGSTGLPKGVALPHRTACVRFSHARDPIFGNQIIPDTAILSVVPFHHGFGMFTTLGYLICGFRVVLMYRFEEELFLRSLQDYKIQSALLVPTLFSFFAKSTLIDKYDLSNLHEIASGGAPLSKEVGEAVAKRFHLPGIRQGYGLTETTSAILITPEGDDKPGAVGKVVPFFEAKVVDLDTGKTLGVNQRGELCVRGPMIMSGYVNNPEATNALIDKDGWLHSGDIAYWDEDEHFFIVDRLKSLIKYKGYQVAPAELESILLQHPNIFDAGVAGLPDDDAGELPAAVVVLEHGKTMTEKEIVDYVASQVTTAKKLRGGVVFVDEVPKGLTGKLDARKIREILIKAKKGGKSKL
Chain of FAD-linked sulfhydryl oxidase ALR (P55789 whole entry): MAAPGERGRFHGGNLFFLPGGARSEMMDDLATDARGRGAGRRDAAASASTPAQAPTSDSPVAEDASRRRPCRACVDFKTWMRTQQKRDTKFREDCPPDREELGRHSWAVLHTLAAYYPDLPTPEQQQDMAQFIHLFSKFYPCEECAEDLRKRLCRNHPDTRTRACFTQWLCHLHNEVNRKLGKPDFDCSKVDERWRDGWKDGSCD

SMILES: Clc1ccc(-c2nnc(-c3ccccc3)c(N3CCSCC3)n2)cc1
- IC50 [1]: > 100 µM (inactive)

SMILES: CCN(C(=O)CN1C(=O)S/C(=C\c2cccc(Cl)c2)C1=O)C1CCS(=O)(=O)C1 (stereo not drawn)
- IC50 [1]: > 100 µM (inactive)

SMILES: COc1ccc(C(=O)Nc2sc(C)c(C)c2CN2CCOCC2)cc1
- EC50 [2]: 12.6 µM (active)
- EC50 [3]: > 112 µM (not active)

SMILES: Cc1cc2nnc(SCCCCN3C(=O)c4ccccc4C3=O)n2c2ccccc12
- AC50 [4]: inconclusive

SMILES: Clc1ncc(CSc2ccccc2)s1
- IC50 [1]: 84.8 µM (inactive)

SMILES: COc1ccc(-c2nnc(NC(=O)C3=COCCO3)o2)cc1
- IC50 [5]: 8.62 µM (active)

SMILES: O=C(Nc1cnn(Cc2c(Cl)cccc2Cl)c1)C(c1ccccc1)c1ccccc1
- EC50 [2]: > 112 µM (not active)
- EC50 [6]: 2.06 µM (active)
- EC50 [7]: > 60 µM (not active)
- EC50 [3]: > 112 µM (not active)

SMILES: CCC(=O)NC(c1ccc(OC)c(OC)c1)c1cc(Cl)c2cccnc2c1O (stereo not drawn)
- EC50 [8]: > 150 µM (not active)
- EC50 [9]: 4.86 µM (active)
- EC50 [6]: 0.96 µM (active)
- AC50 [10]: 2.11 µM (active)
- AC50 [11]: 5.6 µM (active)
- EC50 [7]: 4.73 µM (active)
- EC50 [12]: > 150 µM (not active)
- AC50 [13]: < 0.26 µM (active)

SMILES: C=CCc1cc(C=C2C(=O)NC(=O)NC2=O)cc(OC)c1OCc1ccc(C(=O)O)cc1
- IC50 [14]: 29.1 µM (active)

SMILES: O=C(O)c1ccc(Cl)c(S(=O)(=O)Nc2ccc(S(=O)(=O)Nc3cccc(Cl)c3)cc2)c1
- IC50 [14]: 65.7 µM (active)

SMILES: Cc1ccc(C(C)C)cc1NC(=O)Nc1ccc([N+](=O)[O-])cc1
- EC50 [8]: 10.8 µM (active)
- EC50 [9]: 6.64 µM (active)
- AC50 [10]: 6.53 µM (active)
- AC50 [11]: 22.4 µM (active)
- EC50 [12]: 17.5 µM (active)
- AC50 [13]: 7.19 µM (active)

SMILES: C=CCN1C(=O)NC(=O)/C(=C\c2ccc(-c3ccccc3[N+](=O)[O-])o2)C1=O
- IC50 [14]: 25.2 µM (active)
- AC50 [15]: 0.507 µM (active)

SMILES: CCCCCn1c(=N)n(CC(O)COc2ccccc2OC)c2ccccc21 (stereo not drawn)
- AC50 [10]: 23.4 µM (active)
- AC50 [11]: 24.2 µM (active)
- AC50 [13]: 2.12 µM (active)

SMILES: CN1C(c2ccccc2)CC(=NO)CC1c1ccccc1 (stereo not drawn)
- IC50 [5]: 16.6 µM (active)

SMILES: COc1ccc(/C=C(/C#N)C(=O)NC2CCCCC2)cc1Br
- AC50 [16]: 25.1 µM (inconclusive)
- AC50 [4]: inconclusive

SMILES: O=C1NC(=O)N(c2ccccc2)C(=O)/C1=C\c1ccccc1[N+](=O)[O-]
- IC50 [14]: 38.5 µM (active)

SMILES: COc1cccc(C2=NN(C(C)=O)C(c3cccs3)C2)c1 (stereo not drawn)
- IC50 [1]: > 100 µM (inactive)

SMILES: CCCCOc1ccc(Br)cc1CSC(=N)N
- AC50 [10]: 2.58 µM (active)
- AC50 [11]: 23.6 µM (active)
- AC50 [13]: 1.37 µM (active)

SMILES: O=C(COc1ncnc2c(Cl)cc(Cl)cc12)N1CCCCC1
- IC50 [1]: > 100 µM (inactive)

SMILES: O=[N+]([O-])c1c(O)nc(O)nc1/C=C/c1ccc(Cl)cc1Cl
- IC50 [14]: 49.1 µM (active)

SMILES: CC(C)NS(=O)(=O)c1ccc(CCC(=O)Nc2cc(Cl)ccc2Oc2ccccc2)cc1
- AC50 [10]: 22.5 µM (active)
- AC50 [11]: 57.7 µM (active)
- AC50 [13]: 7.65 µM (active)

SMILES: O=C(/C=C/Nc1ccc(Br)cc1F)c1ccco1
- EC50 [17]: 4.41 µM (active)
- EC50 [18]: 3.64 µM (active)
- EC50 [2]: 8.72 µM (active)
- IC50 [1]: 15.4 µM (active)
- EC50 [3]: 0.482 µM (active)

SMILES: Nc1nc(S)nc2c1C1(CCCCC1)Cc1ccccc1-2
- AC50 [10]: 25 µM (active)
- AC50 [11]: > 70 µM (inactive)

SMILES: C#CCOc1ccc(/C=C2/C(=O)ON=C2C)cc1Br
- IC50 [14]: 80.7 µM (active)

SMILES: O=[N+]([O-])c1cc(N=Nc2ccc3ccccc3c2)ccc1O
- EC50 [2]: 2.24 µM (active)
- IC50 [5]: > 50 µM (active)
- EC50 [3]: 0.173 µM (active)

SMILES: Cc1ccc(C)c(NC(=O)c2cc3ccccc3o2)c1
- IC50 [1]: > 100 µM (inactive)

SMILES: CCOC(=O)COc1ccc2c(c1)c(C(C)=O)c(C)n2Cc1ccccc1
- IC50 [5]: 7.41 µM (active)

SMILES: CCCCOC(=O)c1ccc(NC(=O)c2nn(C)cc2Br)cc1
- IC50 [5]: 12.2 µM (active)

SMILES: O=C1N(c2ccc3c(c2)OCCO3)C(c2ccccc2)C1(F)F (stereo not drawn)
- IC50 [5]: 7.43 µM (active)

SMILES: CCOC(=O)c1csc(-c2snnc2C)n1
- IC50 [5]: 13.2 µM (active)

SMILES: O=C(NC1CS(=O)(=O)CC1NCc1ccccc1)c1ccccc1 (stereo not drawn)
- IC50 [1]: > 100 µM (inactive)

SMILES: O=C(NC1CCCC1)C1CC(c2ccc(F)cc2)=NO1 (stereo not drawn)
- AC50 [16]: 25.1 µM (inconclusive)
- AC50 [4]: inconclusive

SMILES: CN(C)c1ncc2nc(-c3cc(F)cc(F)c3)c(=O)n(CCC#N)c2n1
- AC50 [16]: 39.8 µM (inconclusive)
- AC50 [4]: inconclusive

SMILES: COc1cc2ccccc2cc1C(=O)Nc1ccncc1
- IC50 [1]: 52.3 µM (inactive)

SMILES: CCC[C@H]1C[C@H](C(=O)N[C@H]([C@@H]2O[C@H](SC)[C@@H](O)[C@H](O)[C@@H]2O)[C@H](C)O)N(C)C1
- AC50 [4]: inconclusive

SMILES: c1ccc2c(c1)NC(c1ccncc1)n1c-2nc2ccccc21 (stereo not drawn)
- IC50 [1]: > 100 µM (inactive)

SMILES: COc1ccc(C(=O)CCN2CCCCCC2)cc1
- IC50 [5]: 22.2 µM (active)
- EC50 [19]: 124 µM (active)

SMILES: Fc1ccc(-c2nnn(Cc3nc4ccccc4s3)n2)cc1
- IC50 [1]: 80.1 µM (inactive)

SMILES: Cc1ncsc1CCOC(=O)c1ccc([N+](=O)[O-])cc1
- IC50 [5]: 7.56 µM (active)

SMILES: Cc1c(-c2nc(-c3cccnc3)no2)cccc1[N+](=O)[O-]
- IC50 [1]: > 100 µM (inactive)

SMILES: Cc1ccccc1OCC(=O)OCC(=O)c1ccc[nH]1
- IC50 [5]: 20.3 µM (active)

SMILES: O=C(COC(=O)[C@@H]1CCCN1C(=O)c1cccs1)NCCc1ccccc1
- IC50 [1]: > 100 µM (inactive)

SMILES: O=Nc1c(O)ccc2cc(S(=O)(=O)O)ccc12
- IC50 [14]: 45.7 µM (active)

SMILES: Clc1cccc(-c2nc3ccc(Br)cn3c2Cc2ccsc2)c1
- IC50 [1]: 54.8 µM (inactive)

SMILES: O=C(O)CN1C(=O)C=CC1=O
- IC50 [14]: > 100 µM (active)

SMILES: CN(C)C(=O)c1cccc(-c2cnc3c(NC=O)cc(-c4ccc(N(C)C)cc4)cn23)c1
- IC50 [1]: > 100 µM (inactive)

SMILES: CC(C)c1ccc(NC(=O)Nc2nc(C(N)C3CCCCC3)cs2)cc1 (stereo not drawn)
- AC50 [10]: 4.41 µM (active)
- AC50 [11]: 13.8 µM (active)
- AC50 [13]: 7.29 µM (active)

SMILES: Cc1ccc(-c2nc3ccc(C(=O)O)cc3nc2-c2ccc(C)cc2)cc1
- IC50 [14]: 55.3 µM (active)
- CC50 [20]: 19.4 µM (active)

SMILES: CCc1nnc(N/N=C/c2ccc(-c3ccc([N+](=O)[O-])cc3)o2)n1N
- IC50 [5]: 12.6 µM (active)

SMILES: O=C(Nc1nccs1)c1ccccn1
- IC50 [5]: 9.47 µM (active)

SMILES: COc1ccn(C)c(=O)c1C#N [RICININE]
- AC50 [4]: inconclusive
